Patent US4112076A, “Epi-daunomycin and epi-adriamycin compounds and method of use” (priority 1975, dated 1978)
In brackets after ≈: the same amount, converted by molar mass. Entries after “also recorded” stand apart in the source; their conditions may differ. Like-named read-outs stand apart in the source and are kept apart here.

Legend:
Hela cells = test: Cloning efficiency of Hela cells in vitro (colony inhibition); type: cell-based; conditions: Homo sapiens
Method: After treatment for 2, 8 and 24 hours, Hela cells were seeded (200 cells per plate) and the number of colonies determined 8 days later. The inhibiting dose (ID50) represents the does which produces a 50% inhibition of colonies.
^a cloning efficiency of Hela cells

[1] = Proliferation of uninfected mouse embryo fibroblast (MEF) cultures (cytotoxic action); type: cell-based; conditions: mouse, mouse embryo fibroblasts
Method: (§1) The test compound was evaluated on mouse embryo fibroblast (MEF) cultures infected with MSV and on similar uninfected cultures. After a treatment of three days the inhibiting doses (ID50) were evaluated on cell proliferation in uninfected cultures (cytotoxic action) and on MSV foci formation in infected cultures (antiviral action).
^c inhibition of mouse embryo fibroblasts proliferation

solid sarcoma 180 = test: Solid sarcoma 180, treatment i.v. on days 1 to 5; type: in vivo, mouse
Text: (§2) Activity of 4-demethoxy-4'-epi-adriamycin on
solid sarcoma 180. Treatment i.v. on days 1 to 5.
Average data of 2 experiments.
^a Tumor weight on day 11, % over untreated controls.

P 388 leukemia = test: Ascitic leukemia P 388, treatment i.p. on day 1; type: in vivo, mouse
Text: as §2
(§3) ascitic leukemias. Treatment i.p. on day 1.
(§4) ^a Median survival time, % over untreated controls
(§5) ^b Long term survivors at 60 days

several in vitro systems = test: Several in vitro systems, comparison with adriamycin; type: cell-based; conditions: Table 6
Method: (§6) The above compound was tested in comparison with adriamycin in several in vitro systems and experimental mouse tumors.

L 1210 leukemia = test: Ascitic leukemia L 1210, treatment i.p. on day 1; type: in vivo, mouse
Text: as §2, §3, §4, §5

[2] = system: Moloney Sarcoma Virus (MSV); test: Formation of foci by Moloney Sarcoma Virus (MSV) in vitro (antiviral action); type: cell-based; conditions: Fibroblast, 72 h
Method: as §1
^b inhibition of MSV foci formation

[3] = system: experimental mouse tumors; test: Experimental mouse tumors (overall); type: in vivo; conditions: compared with adriamycin
Method: (§7) The test was carried out on groups of 10 mice (Swiss CD1). The compound under examination was administered intraperitoneally in varying doses to the test animals one day after intraperitoneal inoculation with 1×10^6 tumor cells/mouse.
as §6

Gross leukemia = test: Gross leukemia, treatment i.v. on days 1 to 3; type: in vivo, mouse
Text: On Gross leukemia (which is a systemic tumor transplanted i.v.), the increase in the life span of mice treated with the two compounds at equitoxic doses was similar.
Activity of 4-demethoxy-4'-epi-adriamycin
on Gross leukemia. Treatment i.v. on days
Average data of 2 experiments^a.
^a See legends to Table 7.

Ascites Sarcoma 180 = Ascites Sarcoma 180 in Swiss CD1 mice, i.p.; type: in vivo, mouse (Swiss CD1); conditions: 4.5 ng/Kg (so in the source), i.p. one day after inoculation
Method: as §7, with “In Table 5 the activity of 3'-4'-epi-6'-hydroxyadriamycin on Ascites Sarcoma 180 in mice is reported. The test” for “The test”
The average survival time is given as percentage of the survival time of untreated animals, which is arbitrarily designated as 100%. The number of long term survivors (LTS) is also reported.

[4] = read-out: ID50, inhibition of MSV foci formation

Compound: C[C@@H]1O[C@@H](O[C@H]2C[C@](O)(C(=O)CO)Cc3c(O)c4c(c(O)c32)C(=O)c2ccccc2C4=O)C[C@H](N)[C@H]1O [4-demethoxy-4'-epi-adriamycin]
- IC50 (Hela cells; 2 (hours) treatment, Table 6, read-out: ID50, cloning efficiency of Hela cells): 0.35 ng/mL (≈ 0.682 nM)
- IC50 (Hela cells; 8 (hours) treatment, Table 6, read-out: ID50, cloning efficiency of Hela cells): 0.1 ng/mL (≈ 0.195 nM)
- IC50 (Hela cells; 24 (hours) treatment, Table 6, read-out: ID50, cloning efficiency of Hela cells): 0.03 ng/mL (≈ 0.0584 nM)
- CC50 at 72 h [1]: < 0.003 ng/mL
- T/C % (tumor weight on day 11, % over untreated controls) (solid sarcoma 180; 0.06 mg/Kg i.v. days 1 to 5): 87.3%
- Toxic deaths (solid sarcoma 180; 0.06 mg/Kg i.v. days 1 to 5): 0/10
- T/C % (tumor weight on day 11, % over untreated controls) (solid sarcoma 180; 0.12 mg/Kg i.v. days 1 to 5): 85.1%
- Toxic deaths (solid sarcoma 180; 0.12 mg/Kg i.v. days 1 to 5): 2/16
- T/C % (tumor weight on day 11, % over untreated controls) (solid sarcoma 180; 0.25 mg/Kg i.v. days 1 to 5): 41.9%
- Toxic deaths (solid sarcoma 180; 0.25 mg/Kg i.v. days 1 to 5): 4/19
- Toxic deaths (solid sarcoma 180; 0.5 mg/Kg i.v. days 1 to 5): 9/9
- inhibition of tumor growth on the eleventh day vs adriamycin (solid sarcoma 180; equitoxic doses): slightly lower than that of adriamycin
- LTS (long term survivors at 60 days) (P 388 leukemia; 0.25 mg/Kg i.p. day 1): 0/10
- T/C % (median survival time, % over untreated controls) (P 388 leukemia; 0.25 mg/Kg i.p. day 1): 143%
- Toxic deaths (P 388 leukemia; 0.25 mg/Kg i.p. day 1): 0/10
- LTS (long term survivors at 60 days) (P 388 leukemia; 0.5 mg/Kg i.p. day 1): 1/10
- T/C % (median survival time, % over untreated controls) (P 388 leukemia; 0.5 mg/Kg i.p. day 1): 162%
- Toxic deaths (P 388 leukemia; 0.5 mg/Kg i.p. day 1): 1/10
- LTS (long term survivors at 60 days) (P 388 leukemia; 1 mg/Kg i.p. day 1): 0/10
- T/C % (median survival time, % over untreated controls) (P 388 leukemia; 1 mg/Kg i.p. day 1): 162%
- Toxic deaths (P 388 leukemia; 1 mg/Kg i.p. day 1): 8/10
- antitumor activity at the optimal (non-toxic) dose vs adriamycin (P 388 leukemia; P 388): comparable to that of adriamycin
- in vitro activity compared with adriamycin (several in vitro systems): definitely more active than adriamycin
- LTS (long term survivors at 60 days) (L 1210 leukemia; 0.25 mg/Kg i.p. day 1): 0/11
- T/C % (median survival time, % over untreated controls) (L 1210 leukemia; 0.25 mg/Kg i.p. day 1): 155%
- Toxic deaths (L 1210 leukemia; 0.25 mg/Kg i.p. day 1): 0/11
- LTS (long term survivors at 60 days) (L 1210 leukemia; 0.5 mg/Kg i.p. day 1): 2/11
- T/C % (median survival time, % over untreated controls) (L 1210 leukemia; 0.5 mg/Kg i.p. day 1): 166%
- Toxic deaths (L 1210 leukemia; 0.5 mg/Kg i.p. day 1): 0/11
- LTS (long term survivors at 60 days) (L 1210 leukemia; 1 mg/Kg i.p. day 1): 0/11
- T/C % (median survival time, % over untreated controls) (L 1210 leukemia; 1 mg/Kg i.p. day 1): 133%
- Toxic deaths (L 1210 leukemia; 1 mg/Kg i.p. day 1): 11/11
- antitumor activity at the optimal (non-toxic) dose vs adriamycin (L 1210 leukemia; L 1210): comparable to that of adriamycin
- IC50 [2, 4]: < 0.003 ng/mL
- antitumor activity ([3]; all the systems tested): remarkable antitumor activity; also recorded: higher antitumor activity in mice, similar to adriamycin
- factor by which active doses are lower than those of adriamycin ([3]; mice): 10 times
- LTS (long term survivors) (Gross leukemia; 0.35 mg/Kg i.v. days 1 to 3): 2/20
- T/C % (median survival time, % over untreated controls) (Gross leukemia; 0.35 mg/Kg i.v. days 1 to 3): 153%
- Toxic deaths (Gross leukemia; 0.35 mg/Kg i.v. days 1 to 3): 0/10
- LTS (long term survivors) (Gross leukemia; 0.45 mg/Kg i.v. days 1 to 3): 0/20
- T/C % (median survival time, % over untreated controls) (Gross leukemia; 0.45 mg/Kg i.v. days 1 to 3): 196%
- Toxic deaths (Gross leukemia; 0.45 mg/Kg i.v. days 1 to 3): 0/20
- LTS (long term survivors) (Gross leukemia; 0.55 mg/Kg i.v. days 1 to 3): 0/10
- T/C % (median survival time, % over untreated controls) (Gross leukemia; 0.55 mg/Kg i.v. days 1 to 3): 186%
- Toxic deaths (Gross leukemia; 0.55 mg/Kg i.v. days 1 to 3): 0/10
- LTS (long term survivors) (Gross leukemia; 0.6 mg/Kg i.v. days 1 to 3): 0/10
- T/C % (median survival time, % over untreated controls) (Gross leukemia; 0.6 mg/Kg i.v. days 1 to 3): 214%
- Toxic deaths (Gross leukemia; 0.6 mg/Kg i.v. days 1 to 3): 1/10
- LTS (long term survivors) (Gross leukemia; 0.65 mg/Kg i.v. days 1 to 3): 0/10
- T/C % (median survival time, % over untreated controls) (Gross leukemia; 0.65 mg/Kg i.v. days 1 to 3): 207%
- Toxic deaths (Gross leukemia; 0.65 mg/Kg i.v. days 1 to 3): 0/10
- increase in life span vs adriamycin (Gross leukemia; equitoxic doses): similar

Compound: COc1cccc2c1C(=O)c1c(O)c3c(c(O)c1C2=O)C[C@@](O)(C(=O)CO)C[C@@H]3O[C@H]1C[C@H](N)[C@H](O)[C@H](C)O1 [Adriamycin, adriamycin]
- IC50 (Hela cells; read-out: ID50, cloning efficiency of Hela cells, 8 (hours) treatment, Table 6): 28 ng/mL (≈ 51.5 nM)
- IC50 (Hela cells; read-out: ID50, cloning efficiency of Hela cells, 24 (hours) treatment, Table 6): 12.5 ng/mL (≈ 23 nM)
- CC50 at 72 h ([1]; 72 (hours) treatment, Table 6, read-out: ID50, inhibition of mouse embryo fibroblasts proliferation): 0.026 ng/mL (≈ 0.0478 nM)
- T/C % (tumor weight on day 11, % over untreated controls) (solid sarcoma 180; 2 mg/Kg i.v. days 1 to 5): 22.2%
- Toxic deaths (solid sarcoma 180; 2 mg/Kg i.v. days 1 to 5): 3/19
- T/C % (tumor weight on day 11, % over untreated controls) (solid sarcoma 180; 2.5 mg/Kg i.v. days 1 to 5): 13.5%
- Toxic deaths (solid sarcoma 180; 2.5 mg/Kg i.v. days 1 to 5): 11/18
- LTS (long term survivors at 60 days) (P 388 leukemia; 2.5 mg/Kg i.p. day 1): 0/10
- T/C % (median survival time, % over untreated controls) (P 388 leukemia; 2.5 mg/Kg i.p. day 1): 150%
- Toxic deaths (P 388 leukemia; 2.5 mg/Kg i.p. day 1): 0/10
- LTS (long term survivors at 60 days) (P 388 leukemia; 5 mg/Kg i.p. day 1): 0/10
- T/C % (median survival time, % over untreated controls) (P 388 leukemia; 5 mg/Kg i.p. day 1): 162%
- Toxic deaths (P 388 leukemia; 5 mg/Kg i.p. day 1): 0/10
- LTS (long term survivors at 60 days) (P 388 leukemia; 10 mg/Kg i.p. day 1): 1/10
- T/C % (median survival time, % over untreated controls) (P 388 leukemia; 10 mg/Kg i.p. day 1): 200%
- Toxic deaths (P 388 leukemia; 10 mg/Kg i.p. day 1): 0/10
- LTS (long term survivors at 60 days) (L 1210 leukemia; 2.5 mg/Kg i.p. day 1): 4/11
- T/C % (median survival time, % over untreated controls) (L 1210 leukemia; 2.5 mg/Kg i.p. day 1): 155%
- Toxic deaths (L 1210 leukemia; 2.5 mg/Kg i.p. day 1): 0/11
- LTS (long term survivors at 60 days) (L 1210 leukemia; 5 mg/Kg i.p. day 1): 1/11
- T/C % (median survival time, % over untreated controls) (L 1210 leukemia; 5 mg/Kg i.p. day 1): 166%
- Toxic deaths (L 1210 leukemia; 5 mg/Kg i.p. day 1): 1/11
- LTS (long term survivors at 60 days) (L 1210 leukemia; 10 mg/Kg i.p. day 1): 3/11
- T/C % (median survival time, % over untreated controls) (L 1210 leukemia; 10 mg/Kg i.p. day 1): 155%
- Toxic deaths (L 1210 leukemia; 10 mg/Kg i.p. day 1): 7/11
- IC50 [2, 4]: 0.01 ng/mL (≈ 0.0184 nM)
- LTS (long term survivors) (Ascites Sarcoma 180): 1/10
- T/C % (average survival time, % of untreated) (Ascites Sarcoma 180): 250%
- LTS (long term survivors) (Gross leukemia; 3.5 mg/Kg i.v. days 1 to 3): 0/20
- T/C % (median survival time, % over untreated controls) (Gross leukemia; 3.5 mg/Kg i.v. days 1 to 3): 164%
- Toxic deaths (Gross leukemia; 3.5 mg/Kg i.v. days 1 to 3): 0/20
- LTS (long term survivors) (Gross leukemia; 4.5 mg/Kg i.v. days 1 to 3): 0/20
- T/C % (median survival time, % over untreated controls) (Gross leukemia; 4.5 mg/Kg i.v. days 1 to 3): 182%
- Toxic deaths (Gross leukemia; 4.5 mg/Kg i.v. days 1 to 3): 0/20
- LTS (long term survivors) (Gross leukemia; 5.5 mg/Kg i.v. days 1 to 3): 1/10
- T/C % (median survival time, % over untreated controls) (Gross leukemia; 5.5 mg/Kg i.v. days 1 to 3): 200%
- Toxic deaths (Gross leukemia; 5.5 mg/Kg i.v. days 1 to 3): 1/10
- LTS (long term survivors) (Gross leukemia; 6 mg/Kg i.v. days 1 to 3): 0/10
- T/C % (median survival time, % over untreated controls) (Gross leukemia; 6 mg/Kg i.v. days 1 to 3): 214%
- Toxic deaths (Gross leukemia; 6 mg/Kg i.v. days 1 to 3): 3/10

Compound: COc1cccc2c1C(=O)c1c(O)c3c(c(O)c1C2=O)C[C@@](O)(C(C)=O)C[C@@H]3O[C@H]1C[C@H](N)[C@H](O)[C@H](C)O1 [Daunomycin]
- IC50 (Hela cells; 2 h, read-out: ID50 (action on Hela cells), 2 hours treatment, Table 1): 17000 ng/mL (≈ 32200 nM)
- IC50 (Hela cells; 8 h, read-out: ID50 (action on Hela cells), 8 hours treatment, Table 1): 8500 ng/mL (≈ 16100 nM)
- IC50 (Hela cells; 24 h, read-out: ID50 (action on Hela cells), 24 hours treatment, Table 1): 6800 ng/mL (≈ 12900 nM)
- CC50 at 72 h ([1]; uninfected MEF, three days treatment, Table 2, read-out: Cytotoxic action ID50): 16 ng/mL (≈ 30.3 nM)
- IC50 ([2]; read-out: Antiviral action ID50): 3 ng/mL (≈ 5.69 nM)
